Source: ChEMBL document CHEMBL5154879, “Induction of Genes Implicated in Stress Response and Autophagy by a Novel Quinolin-8-yl-nicotinamide QN523 in Pancreatic Cancer” (J Med Chem, 2022)
pIC50: −log10 of the molar value. Calls of active or inactive are those of the source. The calls are words filed in the database; no cut-off is given here.

Legend:
[1] = test system: BXPC-3; assay: Inhibition of colony formation in human BXPC-3 cells at 1 uM incubated for 10 to 14 days by crystal violet staining based assay; format: functional, cell-based; details: time 10-14 day
[2] = Downregulation of HMG20B gene expression in human MIA PaCa-2 cells assessed as fold change in HMG20B expression at 1 uM incubated for 24 hrs by Bru-seq analysis relative to control; format: functional
[3] = Cytotoxicity against human HPDE cells assessed as inhibition of cell growth incubated for 72 hrs by MTT assay; format: toxicity, cell-based
[4] = test system: MIA PaCa-2; assay: Induction of cell cycle arrest in human MIA PaCa-2 cells assessed as accumulation of cells in G0/G1 phase at 0.1 uM incubated for 24 hrs by RNase/propidium iodide staining based flow cytometry analysis (reference value: 64.3%); format: functional
[5] = test system: MIA PaCa-2; assay: Induction of apoptosis in human MIA PaCa-2 cells assessed as early apoptotic cells at 0.5 uM incubated for 48 hrs by Annexin V-FITC/PI staining based flow cytometry analysis (reference value: 1.8%); format: functional
[6] = test system: MIA PaCa-2; assay: Induction of cell cycle arrest in human MIA PaCa-2 cells assessed as accumulation of cells in G2/M phase at 0.5 uM incubated for 48 hrs by RNase/propidium iodide staining based flow cytometry analysis (reference value: 2.71%); format: functional
[7] = test system: MIA PaCa-2; assay: Induction of apoptosis in human MIA PaCa-2 cells assessed as late apoptotic cells at 0.5 uM incubated for 48 hrs by Annexin V-FITC/PI staining based flow cytometry analysis (reference value: 0.8%); format: functional
[8] = test system: MIA PaCa-2; assay: Upregulation of stress response gene expression in human MIA PaCa-2 cells; format: functional, cell-based
[9] = Downregulation of P1F1 gene expression in human MIA PaCa-2 cells assessed as fold change in P1F1 expression at 1 uM incubated for 24 hrs by Bru-seq analysis relative to control; format: functional
[10] = Downregulation of INCENP gene expression in human MIA PaCa-2 cells assessed as fold change in INCENP expression at 1 uM incubated for 24 hrs by Bru-seq analysis relative to control; format: functional
[11] = Downregulation of GTSEI gene expression in human MIA PaCa-2 cells assessed as fold change in GTSEI expression at 1 uM incubated for 24 hrs by Bru-seq analysis relative to control; format: functional
[12] = test system: MIA PaCa-2; assay: Upregulation of ATF3 gene expression in human MIA PaCa-2 cells incubated for 72 hrs by Western blot analysis; format: functional, cell-based; details: dose <= 600.0 µM, DDE = dose-dependent effect
[13] = Upregulation of ARG2 gene expression in human MIA PaCa-2 cells assessed as fold change in ARG2 expression at 1 uM incubated for 24 hrs by Bru-seq analysis relative to control; format: functional
[14] = test system: MIA PaCa-2; assay: Induction of cell cycle arrest in human MIA PaCa-2 cells assessed as accumulation of cells in G2/M phase at 0.1 uM incubated for 48 hrs by RNase/propidium iodide staining based flow cytometry analysis (reference value: 2.71%); format: functional
[15] = Upregulation of OSGIN1 gene expression in human MIA PaCa-2 cells assessed as fold change in OSGIN1 expression at 1 uM incubated for 24 hrs by Bru-seq analysis relative to control; format: functional
[16] = test system: MIA PaCa-2; assay: Upregulation of CHOP gene expression in human MIA PaCa-2 cells incubated for 72 hrs by Western blot analysis; format: functional, cell-based; details: dose <= 600.0 µM, DDE = dose-dependent effect
[17] = Downregulation of TACC3 gene expression in human MIA PaCa-2 cells assessed as fold change in TACC3 expression at 1 uM incubated for 24 hrs by Bru-seq analysis relative to control; format: functional
[18] = Upregulation of SLFN5 gene expression in human MIA PaCa-2 cells assessed as fold change in SLFN5 expression at 1 uM incubated for 24 hrs by Bru-seq analysis relative to control; format: functional
[19] = Downregulation of RGS3 gene expression in human MIA PaCa-2 cells assessed as fold change in RGS3 expression at 1 uM incubated for 24 hrs by Bru-seq analysis relative to control; format: functional
[20] = test system: MIA PaCa-2; assay: Upregulation of apoptotic gene expression in human MIA PaCa-2 cells by gene set enrichment analysis; format: functional, cell-based
[21] = Toxicity in NOD/SCID mouse xenografted with human MIA PaCa-2 cells assessed as change in body weight at 30 mg/kg, ip administered five times a week starting from day 44 to 51 post first dose; format: organism-based; details: in vivo, 1224 h, time 51 day
[22] = Upregulation of […] gene expression in human MIA PaCa-2 cells assessed as fold change in […] expression at 1 uM incubated for 24 hrs by Bru-seq analysis relative to control; format: functional
[23] = test system: MIA PaCa-2; assay: Induction of apoptosis in human MIA PaCa-2 cells assessed as late apoptotic cells at 0.1 uM incubated for 48 hrs by Annexin V-FITC/PI staining based flow cytometry analysis (reference value: 0.8%); format: functional
[24] = test system: SNU-398; assay: Antiproliferative activity against human SNU-398 cells assessed as inhibition of cell growth incubated for 72 hrs by MTT assay; format: functional, cell-based; details: SNU-398, 72 h
[25] = test system: MIA PaCa-2; assay: Cytotoxicity against human MIA PaCa-2 cells assessed as inhibition of cell growth incubated for 72 hrs by MTT assay; format: functional, cell-based; details: MIA PaCa-2, 72 h
[26] = Toxicity in NOD/SCID mouse xenografted with human MIA PaCa- 2 cells assessed as morphological changes in heart at 10 to 20 mg/kg, ip administered five times a week for 44 days by H and E staining based inverted microscopic analysis; format: organism-based; details: in vivo, 1056 h, dose 10-20 mg/kg, time 44 day
[27] = test system: MIA PaCa-2; assay: Downregulation of G2M checkpoint gene expression in human MIA PaCa-2 cells by gene set enrichment analysis; format: functional, cell-based
[28] = Upregulation of HERPUD1 gene expression in human MIA PaCa-2 cells assessed as fold change in HERPUD1 expression at 1 uM incubated for 24 hrs by Bru-seq analysis relative to control; format: functional
[29] = test system: MIA PaCa-2; assay: Induction of apoptosis in human MIA PaCa-2 cells assessed as live cells at 0.5 uM incubated for 24 hrs by Annexin V-FITC/PI staining based flow cytometry analysis (reference value: 90.2%); format: functional
[30] = test system: MIA PaCa-2; assay: Upregulation of GDF15 gene expression in human MIA PaCa-2 cells incubated for 72 hrs by Western blot analysis; format: functional, cell-based; details: dose <= 600.0 µM, DDE = dose-dependent effect
[31] = test system: MIA PaCa-2; assay: Induction of autophagy in human MIA PaCa-2 cells assessed as accumulation of WIP11 marker gene expression at upto 2 uM incubated for 72 hrs by Western blot analysis; format: functional, cell-based
[32] = Downregulation of SEMA6B gene expression in human MIA PaCa-2 cells assessed as fold change in SEMA6B expression at 1 uM incubated for 24 hrs by Bru-seq analysis relative to control; format: functional
[33] = test system: MIA PaCa-2; assay: Induction of apoptosis in human MIA PaCa-2 cells assessed as late apoptotic cells at 0.1 uM incubated for 24 hrs by Annexin V-FITC/PI staining based flow cytometry analysis (reference value: 2.04%); format: functional
[34] = Downregulation of CCNF gene expression in human MIA PaCa-2 cells assessed as fold change in CCNF expression at 1 uM incubated for 24 hrs by Bru-seq analysis relative to control; format: functional

pIC50 [24]: 5.72
SMILES: O=C(Nc1cccc2cccnc12)c1cnccn1
inhibition [1]: Active | fold change (FC) [2]: 0.33 | IC50 at 72 h [3]: 550 nM | Activity [4]: 52% | Activity [5]: 2.2% | Activity [6]: 11.5% | Activity [7]: 1.8% | Activity [8]: Active | fold change (FC) [9]: 0.28 | fold change (FC) [10]: 0.46 | fold change (FC) [11]: 0.46 | Activity [12]: Dde | fold change (FC) [13]: 12 | Activity [14]: 8.22% | fold change (FC) [15]: 7.8 | Activity [16]: Dde | fold change (FC) [17]: 0.45 | fold change (FC) [18]: 10.3 | fold change (FC) [19]: 0.46 | Activity [20]: Active | Activity [21]: Non-Toxic | fold change (FC) [22]: 12.8 | Activity [23]: 1.5% | pIC50 [25]: 6.96 | Activity [26]: Non-Toxic | Activity [27]: Active | fold change (FC) [28]: 9.8 | Activity [29]: 86.2% | Activity [30]: Dde | Activity [31]: Active | fold change (FC) [32]: 0.43 | Activity [33]: 2.3% | fold change (FC) [34]: 0.36
